Reference: the supplement of paper PMC10883282
± gives the standard deviation of the averaged measurements.

Assays:
SW684 = test: standardised AUC of viability dose-response curve (72 h) (fraction (0-1)); higher = less growth inhibition (more resistant)
Summary of the method: (§1)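 Sarcoma cell lines in 384-well plates were treated in triplicate for 72 h with 2.5 µl of compound dilution series (compound-plate series 10 mM to 0.0002 mM, 1:3 steps). ATPLite viability was scaled 1 (full) to 0 (none) and fitted per drug and cell line with a four-parameter log-logistic model. The standardised area under the dose-response curve in log-dose space (modified drexplorer computeAUC) runs from 1 (no response) to 0 (full response).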

VA-ES-BJ [1] = test: as above
Summary of the method: as §1

SW872 = test: as above
Summary of the method: as §1

SK-ES-1 [2] = test: as above
Summary of the method: as §1

RD = test: as above
Summary of the method: as §1

SK-LMS-1 = test: as above
Summary of the method: as §1

SYO-1 = test: as above
Summary of the method: as §1

SW982 [3] = test: as above
Summary of the method: as §1

RD-ES = test: as above
Summary of the method: as §1

MES-SA [4] = test: as above
Summary of the method: as §1

SW1353 = test: as above
Summary of the method: as §1

G401 = test: as above
Summary of the method: as §1

HS729 = test: as above
Summary of the method: as §1

HT1080 = test: as above
Summary of the method: as §1

KHOS-240S = test: as above
Summary of the method: as §1

A204 [5] = test: as above
Summary of the method: as §1

KHOS-NP = test: as above
Summary of the method: as §1

VA-ES-BJ [6] = test: relative viability vs DMSO control (72 h) (fraction); higher = more viable cells
Summary of the method: (§2)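 Sarcoma cell lines in 384-well plates, seeded to reach 80–90% confluence, were given compound after 24 h and kept 72 h at 37 °C, 5% CO2, with 0.1% DMSO vehicle and a 5 µM positive control. Relative viability came from ATPLite as percent growth, averaged over up to triplicate wells. On the rescaled values, 1 equals full and 0 equals none.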

SK-ES-1 [7] = test: as above
Summary of the method: as §2

SW982 [8] = test: as above
Summary of the method: as §2

MES-SA [9] = test: as above
Summary of the method: as §2

A204 [10] = test: as above
Summary of the method: as §2

COc1cc2ncnc(Nc3cccc(Cl)c3F)c2cc1OC(=O)N1CCN(C)C[C@H]1C [AZD-3759]
Settings | standardised AUC
A204 [5] | 0.958
G401 | 0.972
HS729 | 0.906
HT1080 | 0.975
KHOS-240S | 0.967
KHOS-NP | 0.969
MES-SA [4] | 0.974
RD | 0.991
RD-ES | 0.992
SK-ES-1 [2] | 0.972
SK-LMS-1 | 0.964
SW684 | 0.978
SW872 | 0.967
SW982 [3] | 0.977
SW1353 | 0.922
SYO-1 | 0.91
VA-ES-BJ [1] | 0.955

relative viability
Settings | A204 [10] | MES-SA [9] | SK-ES-1 [7] | SW982 [8] | VA-ES-BJ [6]
0.00017 µM | 1.051 ± 0.0099 | 0.938 ± 0.011 | 1.09 ± 0.035 | 1.06 ± 0.027 | 1.03 ± 0.021
0.00051 µM | 1.1 ± 0.013 | 0.921 ± 0.025 | 0.999 ± 0.046 | 1.02 ± 0.027 | 1.05 ± 0.061
0.00152 µM | 1.09 ± 0.043 | 0.953 ± 0.055 | 1.06 ± 0.059 | 1.03 ± 0.025 | 1.04 ± 0.016
0.00457 µM | 1.08 ± 0.025 | 0.917 ± 0.064 | 1.01 ± 0.014 | 1.06 ± 0.021 | 1.02 ± 0.032
0.01372 µM | 1.05 ± 0.072 | 0.94 ± 0.029 | 1.06 ± 0.037 | 1.07 ± 0.054 | 1.02 ± 0.011
0.04115 µM | 1.08 ± 0.046 | 0.929 ± 0.027 | 1.06 ± 0.091 | 1.04 ± 0.014 | 0.992 ± 0.036
0.1235 µM | 1.04 ± 0.044 | 0.921 ± 0.031 | 0.978 ± 0.049 | 1.07 ± 0.04 | 0.986 ± 0.038
0.3704 µM | 1.04 ± 0.017 | 0.891 ± 0.054 | 0.999 ± 0.063 | 1.07 ± 0.041 | 0.949 ± 0.033
1.111 µM | 1.03 ± 0.055 | 0.902 ± 0.025 | 1.02 ± 0.031 | 1.01 ± 0.037 | 0.975 ± 0.035
3.333 µM | 0.954 ± 0.046 | 0.8425 ± 0.0084 | 0.908 ± 0.046 | 0.945 ± 0.015 | 0.972 ± 0.013
10 µM | 0.883 ± 0.032 | 0.777 ± 0.033 | 0.83 ± 0.052 | 0.889 ± 0.029 | 0.952 ± 0.046
